According to the supplement of paper PMC10307832:

Tests used:
Assay in all cases: relative viability (nuclei count vs DMSO), 5 days (fraction); higher = more cells survive
Neratinib + Bortezomib = compound: CCOc1cc2ncc(C#N)c(Nc3ccc(OCc4ccccn4)c(Cl)c3)c2cc1NC(=O)/C=C/CN(C)C [Neratinib] + CC(C)C[C@H](NC(=O)[C@H](Cc1ccccc1)NC(=O)c1cnccn1)B(O)O [Bortezomib] (partner 0.002 µM)
How it was run: (§1)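 For relative viability, nuclei counts in treated wells were divided by those in vehicle wells. Lung cancer cell lines had been pin-tool dosed in 1536-well plates the day after seeding and cultured for 5 days, then fixed and stained in one step (final 0.05% Triton X-100, 1% formaldehyde, 1 ug/ml Hoechst) and imaged at 4×. Doses were one drug alone or a fixed anchor-drug dose plus five library-drug doses (not always all listed) in √10 steps, and values are duplicate-plate medians.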

Neratinib + Lapatinib = compound: CCOc1cc2ncc(C#N)c(Nc3ccc(OCc4ccccn4)c(Cl)c3)c2cc1NC(=O)/C=C/CN(C)C [Neratinib] + CS(=O)(=O)CCNCc1ccc(-c2ccc3ncnc(Nc4ccc(OCc5cccc(F)c5)c(Cl)c4)c3c2)o1 [Lapatinib] (partner 2 µM)
How it was run: as §1

Neratinib + AZD7762 = compound: CCOc1cc2ncc(C#N)c(Nc3ccc(OCc4ccccn4)c(Cl)c3)c2cc1NC(=O)/C=C/CN(C)C [Neratinib] + NC(=O)Nc1cc(-c2cccc(F)c2)sc1C(=O)N[C@H]1CCCNC1 [AZD7762] (partner 0.2 µM)
How it was run: as §1

Neratinib + Decitabine = compound: CCOc1cc2ncc(C#N)c(Nc3ccc(OCc4ccccn4)c(Cl)c3)c2cc1NC(=O)/C=C/CN(C)C [Neratinib] + Nc1ncn([C@H]2C[C@H](O)[C@@H](CO)O2)c(=O)n1 [Decitabine] (partner 2 µM)
How it was run: as §1

Cell Line	relative viability (Neratinib + Bortezomib; first compound 0.01 µM)	relative viability (Neratinib + Bortezomib; first compound 0.03162 µM)	relative viability (Neratinib + Bortezomib; first compound 0.1 µM)	relative viability (Neratinib + Bortezomib; first compound 0.3162 µM)	relative viability (Neratinib + Bortezomib; first compound 1 µM)	relative viability (Neratinib + Lapatinib; first compound 0.01 µM)	relative viability (Neratinib + Lapatinib; first compound 0.03162 µM)	relative viability (Neratinib + Lapatinib; first compound 0.1 µM)	relative viability (Neratinib + Lapatinib; first compound 0.3162 µM)	relative viability (Neratinib + Lapatinib; first compound 1 µM)	relative viability (Neratinib + AZD7762; first compound 0.01 µM)	relative viability (Neratinib + AZD7762; first compound 0.03162 µM)	relative viability (Neratinib + AZD7762; first compound 0.1 µM)	relative viability (Neratinib + AZD7762; first compound 0.3162 µM)	relative viability (Neratinib + AZD7762; first compound 1 µM)	relative viability (Neratinib + Decitabine; first compound 0.01 µM)	relative viability (Neratinib + Decitabine; first compound 0.03162 µM)	relative viability (Neratinib + Decitabine; first compound 0.1 µM)	relative viability (Neratinib + Decitabine; first compound 0.3162 µM)	relative viability (Neratinib + Decitabine; first compound 1 µM)
EPLC-272H	0.841	0.994	0.881	0.775	0.65	0.889	0.849	0.829	0.899	0.536	0.209	0.193	0.112	0.181	0.205	0.407	0.444	0.332	0.331	0.344
H3255	0.776	0.97	0.556	0.225	0.233	0.257	0.333	0.273	0.229	0.176	1.01	0.824	0.588	0.288	0.247	0.548	0.471	0.454	0.218	0.245
HARA	1.26	1.15	0.97	0.974	0.79	0.994	0.73	0.339	0.569	0.712	0.563	0.293	0.263		0.261	0.573	0.493	0.414		0.476
HCC-15	0.948	1.16	0.932	0.956	0.882	0.947	1.01	0.715	0.756	0.725	1.46	1.23	1.18	1.09	1.24	0.684	0.703	0.646	0.662	0.597
HCC-44	0.997	0.954	0.78	0.931	0.952	1.04	1.15	0.792	0.963	1.07	0.961	0.995	0.947	1.05	1.12	0.993	0.983	0.897	0.922	1.09
HCC-78	0.478	0.446	0.432	0.43	0.301	0.89	1.09	0.788	0.952	0.398	0.797	0.602	0.541	0.424	0.415	0.816		0.651	0.691	0.649
HCC-366	1.16	1.13		1.01	1.07	1.27	1.18	0.901	1.09	1.06		0.307	0.147	0.232	0.169	0.361	0.429	0.33	0.368	0.471
HCC-827	1.05	1.07	0.876	1.13	0.376	0.223	0.229	0.17	0.174	0.165	0.217	0.236	0.132	0.129	0.132	0.375	0.354	0.271	0.243	0.217
HOP-62	0.872	0.855	0.624	0.541	1			0.879	0.825	1.21	0.672	0.525	0.559		0.443	0.215	0.222	0.198		0.215
LC-2-ad	1	1.07	0.866	1	0.963	0.993	0.974	0.783	1.06	0.978	0.832	0.894		0.551	0.327	0.931	0.815	0.72	0.7	
LCLC-97TM1	0.786	0.347	0.739	0.41	0.298	1.29	1.01	1.02	0.637	0.275	0.224	0.251	0.218	0.207	0.304	0.258	0.251	0.276		0.215
LOU-NH91	0.477	0.51	0.484	0.507	0.559	0.809	0.776	0.733	0.743	0.567	0.791	0.728	0.717	0.664	0.496	0.794	0.775	0.68	0.673	0.604
LU99A	1.11	1.18	0.762	0.927	0.413	1.04	1.05	0.692	0.587	0.385	0.426	0.403	0.314	0.374	0.263		1.12	0.752	0.952	0.578
LXF-289	1.02	0.998	0.93	1.03	0.975		0.964	0.809	0.924	0.937	1.09	1.12	1.04	1.21		0.382	0.396	0.39	0.349	0.421
NCI-H23	0.964	1.31	1.07	1.13	0.821	1.05	0.932	1.09	1.02	0.762	0.253	0.329	0.25	0.217	0.191	0.325	0.298	0.289	0.404	0.264
